In BindingDB's records for doi:10.1021/jm00002a012 (Merck Research Laboratories, 1995) one finds IC50 data, which are given here for one compound.

The target in this assay is Human immunodeficiency virus type 1 protease (Human immunodeficiency virus 1, UniProt Q72874). Kind of assay: Inhibition of HIV-1 protease was determined in vitro.

In the case of `CC(C)(C)NC(=O)[C@@H]1C[C@@H]2CCCC[C@@H]2CN1C[C@@H](O)[C@H](Cc1ccccc1)NC(=O)[C@@H](NC(=O)c1ccc2ccccc2n1)[C@H]1CCOC1` [(3S,4aS,8aS)-N-tert-butyl-2-[(2R,3S)-2-hydroxy-3-[(2S)-2-[(3R)-oxolan-3-yl]-2-(quinolin-2-ylformamido)acetamido]-4-phenylbutyl]-decahydroisoquinoline-3-carboxamide], the IC50 (as a rule, the midpoint of a concentration-inhibition curve) was 0.05 nM.
